# From patent publication US7767842B2, “Class of γδ T cells activators and use thereof” (Innate Pharma SA, priority 2002, dated 2010)
# Like-named read-outs stand apart in the source and are kept apart here.
# Key:
# [1] = tested on: primary polyclonal human Vγ9Vδ2 T cells; experiment: Cytokine release assay: TNFα release from γδ T cells; format: cell-based
# Experimental: Cells (primary polyclonal human Vγ9Vδ2 T cells which have been expanded in vitro and stored frozen at day 12-15 of expansion) are thawed and rinsed twice and centrifuged. Upon elimination of supernatant and resuspension of cells, the cells are incubated for 24 h at 37° C. in the presence of IL2 100 IU/ml (final concentration). The cells are washed and centrifuged, following which the supernatant is eliminated and the cells are resuspended and adjusted to the adequate final concentration. The cells are added to the wells of a 96-well plate.
# To one row of wells is added a standard dilution series of […] (BrHPP). Compounds to be tested, in this case (E)-4-hydroxy-3-methyl-2-butenyl pyrophosphate (HDMAPP) and the N-HDMAPP compound of the invention are added to experimental wells, after several dilutions.
# Full plates are incubated 24 hours at 37° C. for stimulation of the γδ cells with the test compound and reference compounds, in this case N-HDMAPP, BrHPP and HDMAPP, as further described below. After this time, 100 μl of culture supernatant is taken for TNFα dosage. Measurement of the released TNFα dosage is performed as described by the manufacturer's instruction in the TNFα enzyme immunoassay kit (ref. 11121, Immunotech—Beckman Coulter). OD at 405 nm is read, the OD being proportional to the concentration of released TNFα in the culture supernatant. The data are processed with the Excel software to compare concentration of test compound versus concentration of TNFα and for the calculation of the EC50 for each test compound.
# The bioactivity of the compound N-HDMAPP was assessed using a TNFα release assay as described above. Compounds BrHPP and HDMAPP were included for purpose of comparison. […] As will be appreciated, any other suitable assays such as cell amplification may be used in assessing compounds.
# [2] = tested on: γδ T cells; conditions: at best; Wilhelm et al., 2003; cited from earlier work
# [3] = 24 hours stimulation at 37° C., TNFα enzyme immunoassay, relative screening test, read-out: in vitro EC50, TNFα release
compound,measurement,setting,value
"CC(O)(CBr)CCOP(=O)(O)OP(=O)(O)O (stereo not drawn) [BrHPP, 3-(bromomethyl)-3-butanol-1-yl-diphosphate]",EC50,"[1]; Homo sapiens, T-cell, prior assays, calibrated cells, read-out: EC50 in prior assays with calibrated cells using a BrHPP-standard composition",~15 nM
"C/C(=C\COP(=O)(O)OP(=O)(O)O)CO [HDMAPP, (E)-4-hydroxy-3-methyl-2-butenyl pyrophosphate]",EC50,[1]; [3],2.1 nM
NCCC(O)(P(=O)(O)O)P(=O)(O)O [pamidronate],increase in γδ T cell count,[2],≤ 2 fold
(E)-4-hydroxy-3-methylbut-2-enyl pyrophosphoramidate [N-HDMAPP],EC50,[1]; [3],0.63 nM
same,maximum TNFα release,"[1]; maximum level, FIG. 1",over 1800 pg/ml
same,increased potency over the most potent compounds tested so far,"[1]; ratio of EC50, TNFα release",3-4
